According to PMC5654968 (NPJ Systems Biology and Applications, 2017):
Where two headings read alike, the source gives them in different places.

Format: in vivo, rat
Protocol: Distilled water and saline were administered as vehicle to rats in each control group. […] Plasma cytokine levels were measured by ELISA or multiplex immunoassay; common metabolites and lipid mediators were analyzed by GC-MS/MS and LC-MS/MS, respectively.
Pathway maps of lipid mediators were created by using CellDesigner 4.4 software (http://www.celldesigner.org). We evaluated the effects of the treatments on specific lipid mediators and categorized them according to COX, CYP and LOX pathways by Fisher’s exact test. The proinflammatory and anti-inflammatory indices were analyzed as described by Tam et al. with modification.[22]

[1] = PM/P (polyI:C+maoto vs polyI:C), 2h
[2] = PM/P (polyI:C+maoto vs polyI:C), 4h
[3] = first value of an incomplete line, time (2h or 4h) not assignable

## CCCCC/C=C\C[C@H](O)/C=C/C=C\C/C=C\CCCC(=O)O [12-HETE]
M/C (maoto vs control), 2h
  log2FC of plasma level: 1.25
M/C (maoto vs control), 4h
  log2FC of plasma level: -0.38
P/C (polyI:C vs control), 2h
  log2FC of plasma level: -0.61
P/C (polyI:C vs control), 4h
  log2FC of plasma level: 0.37
[1]
  log2FC of plasma level: 1.33
[2]
  log2FC of plasma level: -0.36

## CCCCCC(O)/C=C/C=C/C/C=C/CCCC(=O)O (stereo not shown) [12-HHT]
M/C (maoto vs control), 2h
  log2FC of plasma level: 0.48
M/C (maoto vs control), 4h
  log2FC of plasma level: -0.39
P/C (polyI:C vs control), 2h
  log2FC of plasma level: 0.33
P/C (polyI:C vs control), 4h
  log2FC of plasma level: 1.13
[1]
  log2FC of plasma level: -0.01
[2]
  log2FC of plasma level: -1.45

## CCCCC/C=C\CC(=O)/C=C/C=C\C/C=C\CCCC(=O)O [12-KETE]
M/C (maoto vs control), 2h
  log2FC of plasma level: 0.74
M/C (maoto vs control), 4h
  log2FC of plasma level: -1.34
P/C (polyI:C vs control), 2h
  log2FC of plasma level: -0.45
P/C (polyI:C vs control), 4h
  log2FC of plasma level: 0.53
[1]
  log2FC of plasma level: 0.54
[2]
  log2FC of plasma level: -1.45

## CCCCCC(=O)CCC1C(=O)CC(O)C1C/C=C\CCCC(=O)O (stereo not shown) [13,14-dihydro-15-keto-PGD2]
  log2FC of plasma level: -0.34
[3]
  log2FC of plasma level: 0.70

## CCCCCC(=O)CC[C@H]1[C@H](O)CC(=O)[C@@H]1C/C=C\CCCC(=O)O [13,14-dihydro-15-keto-PGE2]
M/C (maoto vs control), 2h
  log2FC of plasma level: 0.22
M/C (maoto vs control), 4h
  log2FC of plasma level: 0.13
P/C (polyI:C vs control), 2h
  log2FC of plasma level: 1.01
P/C (polyI:C vs control), 4h
  log2FC of plasma level: 0.22
[1]
  log2FC of plasma level: -0.04
[2]
  log2FC of plasma level: 0.42

## CCCCCC(=O)CC[C@@H]1[C@@H](C/C=C\CCCC(=O)O)[C@@H](O)C[C@H]1O [13,14-dihydro-15-keto-PGF2α]
M/C (maoto vs control), 2h
  log2FC of plasma level: 0.41
M/C (maoto vs control), 4h
  log2FC of plasma level: -0.29
P/C (polyI:C vs control), 2h
  log2FC of plasma level: 0.56
P/C (polyI:C vs control), 4h
  log2FC of plasma level: -0.30
[1]
  log2FC of plasma level: 0.05
[2]
  log2FC of plasma level: 0.38

## CCCCCC(=O)CCC1C(O)CC(=O)C1CCC(=O)O (stereo not shown) [13,14-dihydro-15-keto-tetranor-PGE2]
M/C (maoto vs control), 2h
  log2FC of plasma level: 0.05
M/C (maoto vs control), 4h
  log2FC of plasma level: -0.80
P/C (polyI:C vs control), 2h
  log2FC of plasma level: 2.37
P/C (polyI:C vs control), 4h
  log2FC of plasma level: 2.09
[1]
  log2FC of plasma level: -0.40
[2]
  log2FC of plasma level: -2.03

## CCCCCC(=O)CCC1C(O)CC(O)C1CCC(=O)O (stereo not drawn) [13,14-dihydro-15-keto-tetranor-PGF1α]
  log2FC of plasma level: 0.16
[3]
  log2FC of plasma level: 0.18

## CCCCCC(=O)CCC1C(O)CC(O)C1CCC(=O)O (stereo not drawn) [13,14-dihydro-15-keto-tetranor-PGF1β]
M/C (maoto vs control), 2h
  log2FC of plasma level: 0.11
M/C (maoto vs control), 4h
  log2FC of plasma level: 0.40
P/C (polyI:C vs control), 2h
  log2FC of plasma level: 0.93
P/C (polyI:C vs control), 4h
  log2FC of plasma level: 0.27
[1]
  log2FC of plasma level: 0.11
[2]
  log2FC of plasma level: -0.01

## CC/C=C\C/C=C\C=C\C(O)C/C=C\C/C=C\C/C=C\CCC(=O)O (stereo not shown) [13-HDoHE]
M/C (maoto vs control), 2h
  log2FC of plasma level: 0.03
M/C (maoto vs control), 4h
  log2FC of plasma level: -0.44
P/C (polyI:C vs control), 2h
  log2FC of plasma level: 0.01
P/C (polyI:C vs control), 4h
  log2FC of plasma level: 0.18
[1]
  log2FC of plasma level: -0.06
[2]
  log2FC of plasma level: -0.62

## CCCCCC(O)/C=C/C=C\CCCCCCCC(=O)O (stereo not shown) [13-HODE]
M/C (maoto vs control), 2h
  log2FC of plasma level: 0.14
M/C (maoto vs control), 4h
  log2FC of plasma level: -0.46
P/C (polyI:C vs control), 2h
  log2FC of plasma level: 0.15
P/C (polyI:C vs control), 4h
  log2FC of plasma level: 0.36
[1]
  log2FC of plasma level: -0.11
[2]
  log2FC of plasma level: -0.80

## CC/C=C\CC(O)/C=C/C=C\CCCCCCCC(=O)O (stereo not shown) [13-HOTrE]
M/C (maoto vs control), 2h
  log2FC of plasma level: 0.23
M/C (maoto vs control), 4h
  log2FC of plasma level: -0.43
P/C (polyI:C vs control), 2h
  log2FC of plasma level: 0.16
P/C (polyI:C vs control), 4h
  log2FC of plasma level: 0.11
[1]
  log2FC of plasma level: -0.20
[2]
  log2FC of plasma level: -0.60

## CCCCC[C@@H](/C=C/C=C\CCCCCCCC(=O)O)OO [13-HpODE]
M/C (maoto vs control), 2h
  log2FC of plasma level: 2.37
M/C (maoto vs control), 4h
  log2FC of plasma level: -2.47
P/C (polyI:C vs control), 2h
  log2FC of plasma level: 0.75
P/C (polyI:C vs control), 4h
  log2FC of plasma level: 0.25
[1]
  log2FC of plasma level: -0.76
[2]
  log2FC of plasma level: -1.63

## CCCCCC(=O)/C=C/C=C\CCCCCCCC(=O)O [13-KODE]
M/C (maoto vs control), 2h
  log2FC of plasma level: 0.39
M/C (maoto vs control), 4h
  log2FC of plasma level: -1.68
P/C (polyI:C vs control), 2h
  log2FC of plasma level: -0.08
P/C (polyI:C vs control), 4h
  log2FC of plasma level: 0.50
[1]
  log2FC of plasma level: -0.15
[2]
  log2FC of plasma level: -1.45

## CCCCCC(O)C(O)C/C=C\C/C=C\C/C=C\CCCC(=O)O (stereo not shown) [14,15-DHET]
M/C (maoto vs control), 2h
  log2FC of plasma level: 0.79
M/C (maoto vs control), 4h
  log2FC of plasma level: 0.01
P/C (polyI:C vs control), 2h
  log2FC of plasma level: 0.07
P/C (polyI:C vs control), 4h
  log2FC of plasma level: 0.40
[1]
  log2FC of plasma level: 0.22
[2]
  log2FC of plasma level: -0.41

## CC/C=C\CC(O)C(O)C/C=C\C/C=C\C/C=C\CCCC(=O)O (stereo not shown) [14,15-DiHETE]
M/C (maoto vs control), 2h
  log2FC of plasma level: 0.41
M/C (maoto vs control), 4h
  log2FC of plasma level: -0.20
P/C (polyI:C vs control), 2h
  log2FC of plasma level: 0.14
P/C (polyI:C vs control), 4h
  log2FC of plasma level: 0.00
[1]
  log2FC of plasma level: -0.13
[2]
  log2FC of plasma level: -0.17
